In US9386787B2, “Preparations for oral consumption” (Symrise AG, priority 2012, dated 2016):
Marks after values point to notes of the source that are not given here.

Test: multiple time-intensity profiling (mTIP) of astringency, trained panel
Format: in vivo
Details: 750 mg/kg EGCG + 125 mg/kg ascorbic acid; for Reduction (%) of astringency: 300 μg/kg Frescolat ML vs without; for Astringency with Frescolat ML: 300 μg/kg Frescolat ML
Description: In order to evaluate different attributes of a sample simultaneously over a particular period of time, the method of so-called “multiple time-intensity profiling” (mITP) was used. This descriptive method combines the advantages of the “dual-attribute time-intensity” (DATI) method, in which the intensities of two descriptors can be plotted on a two-dimensional plane, and the “time-intensity profiling” (TIP) method, in which more than two descriptors are evaluated in succession over time. In each mTIP test, trained panellists (n=15) are asked to take 2 mouthfuls (each 5 ml) of the sample to be evaluated, to wet the entire oral cavity therewith, and then to spit the sample out again. […] A parallel evaluation of more than two attributes is thus possible. The intensities are read after the first 10 seconds and then every 20 seconds over a period of 70 seconds. The data produced are analysed by means of Compusense® five and represented graphically as a time-intensity curve. In order to show the astringency-masking effect of L-lactic acid L-menthyl ester (Frescolat ML), the panel was trained inter alia with an aqueous test solution comprising 750 mg/kg of epigallocatechin gallate and 125 mg/kg of ascorbic acid. The panellists were asked to evaluate the test solution in respect of its bitterness and astringency using the above-described method. In a subsequent test, the two descriptors were evaluated on the one hand for the above-described test solution and on the other hand for the test solution plus 300 μg/kg of Frescolat ML. The results of both time-intensity curves were evaluated statistically and compared with one another in order to determine an astringency-masking effect of Frescolat® ML. For the significance calculation, the Student t-test, duplicated with paired random samples, was used.

In the case of `CC(C)[C@@H]1CC[C@@H](C)C[C@H]1OC(=O)[C@H](C)O` [Frescolat ML, L-lactic acid L-menthyl ester], the “Reduction (%) of astringency” value (time 0 sec) is reported as −0.49%, the “Reduction (%) of astringency” value (time 10 sec) is reported as −14.29% and the “Reduction (%) of astringency” value (time 30 sec, significant (p < 0.1)) is reported as −20.58* %. The “Reduction (%) of astringency” value (time 50 sec, significant (p < 0.1)) was −22.24* %, the “Reduction (%) of astringency” value (time 70 sec) was −17.82% and the “Astringency with Frescolat ML” value (time 0 sec) was 4.81. The “Astringency with Frescolat ML” value (time 10 sec) was 4.11, the “Astringency with Frescolat ML” value (time 30 sec) was 3.38 and the “Astringency with Frescolat ML” value (time 50 sec) was 2.58. The “Astringency with Frescolat ML” value (time 70 sec) was 2.04.
